Results on 21 compounds are retold here after ChEMBL document CHEMBL1909046, “DrugMatrix in vitro pharmacology data”.

Test [1] can be described thus: DRUGMATRIX: Serotonin (5-Hydroxytryptamine) 5-HT3 radioligand binding (ligand: [3H] GR-65630). The class given is cell membranes, Membrane. Particulars: hek293; Not Active = under 50% inhibition at 10 µM.
Test [2] deals with T1, C-C chemokine receptor type 4 (Homo sapiens, UniProt P51679).
T1 sequence (P51679 whole entry): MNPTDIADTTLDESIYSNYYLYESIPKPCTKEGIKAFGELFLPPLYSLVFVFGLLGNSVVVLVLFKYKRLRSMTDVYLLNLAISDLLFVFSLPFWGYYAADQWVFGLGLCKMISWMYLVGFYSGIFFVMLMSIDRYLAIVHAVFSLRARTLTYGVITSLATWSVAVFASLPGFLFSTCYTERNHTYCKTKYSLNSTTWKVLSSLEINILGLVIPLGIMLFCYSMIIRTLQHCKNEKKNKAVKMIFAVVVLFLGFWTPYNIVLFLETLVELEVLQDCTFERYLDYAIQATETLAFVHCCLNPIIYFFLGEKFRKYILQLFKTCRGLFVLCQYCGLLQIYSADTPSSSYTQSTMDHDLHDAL
The class given is cell membranes, Membrane. Particulars: chem-1.

Test [3] addresses Glycine receptor (Rattus norvegicus, UniProt P22771+P24524+P07727+P20781). In kind it is cell membranes, Wistar, Spinal cord, Membrane.
In test [4] the target is Nitric oxide synthase 1 (Rattus norvegicus, UniProt P29476). The class given is tissue-based, Cerebellum. Also: in other assays of this panel Not Active means under 50% inhibition at 10 µM.
Sequence of Nitric oxide synthase 1 (P29476 whole entry): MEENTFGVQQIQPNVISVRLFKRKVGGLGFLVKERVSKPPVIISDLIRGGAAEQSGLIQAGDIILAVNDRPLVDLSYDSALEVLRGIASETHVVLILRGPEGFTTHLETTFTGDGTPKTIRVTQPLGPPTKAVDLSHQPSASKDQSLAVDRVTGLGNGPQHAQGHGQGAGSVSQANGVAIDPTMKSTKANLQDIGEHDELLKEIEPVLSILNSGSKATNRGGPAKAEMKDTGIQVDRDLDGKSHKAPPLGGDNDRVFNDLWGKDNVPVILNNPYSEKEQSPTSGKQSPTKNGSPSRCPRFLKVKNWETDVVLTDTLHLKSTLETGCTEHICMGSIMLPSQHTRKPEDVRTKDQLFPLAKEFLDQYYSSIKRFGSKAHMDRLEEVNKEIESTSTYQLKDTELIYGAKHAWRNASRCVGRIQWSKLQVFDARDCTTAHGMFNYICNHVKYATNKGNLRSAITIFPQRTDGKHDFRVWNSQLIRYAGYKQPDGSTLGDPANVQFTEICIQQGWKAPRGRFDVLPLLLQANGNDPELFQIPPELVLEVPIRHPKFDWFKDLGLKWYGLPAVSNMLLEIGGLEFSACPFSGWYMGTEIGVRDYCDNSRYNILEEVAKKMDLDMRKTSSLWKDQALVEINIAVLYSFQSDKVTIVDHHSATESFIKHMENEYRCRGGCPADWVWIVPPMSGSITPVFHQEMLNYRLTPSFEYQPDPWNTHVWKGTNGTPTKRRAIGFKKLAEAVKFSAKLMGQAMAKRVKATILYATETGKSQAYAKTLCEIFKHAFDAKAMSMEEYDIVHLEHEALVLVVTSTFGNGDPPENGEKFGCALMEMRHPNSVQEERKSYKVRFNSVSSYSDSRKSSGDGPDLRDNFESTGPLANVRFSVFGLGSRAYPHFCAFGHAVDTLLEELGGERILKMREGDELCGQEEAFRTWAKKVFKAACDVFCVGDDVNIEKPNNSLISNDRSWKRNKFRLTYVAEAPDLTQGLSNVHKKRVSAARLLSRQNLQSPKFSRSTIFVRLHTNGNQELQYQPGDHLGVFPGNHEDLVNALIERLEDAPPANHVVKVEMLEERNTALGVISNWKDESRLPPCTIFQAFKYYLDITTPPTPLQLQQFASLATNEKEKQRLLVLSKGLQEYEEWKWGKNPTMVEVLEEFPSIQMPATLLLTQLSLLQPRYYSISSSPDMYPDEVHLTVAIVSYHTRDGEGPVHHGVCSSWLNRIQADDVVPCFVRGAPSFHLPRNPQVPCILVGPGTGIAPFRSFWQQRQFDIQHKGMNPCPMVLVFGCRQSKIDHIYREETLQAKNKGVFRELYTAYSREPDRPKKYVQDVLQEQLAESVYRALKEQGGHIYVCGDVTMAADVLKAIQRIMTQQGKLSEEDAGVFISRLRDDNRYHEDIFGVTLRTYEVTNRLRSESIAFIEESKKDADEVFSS
Test [5] has as its target Kappa-type opioid receptor (Homo sapiens, UniProt P41145). The experiment in a line: DRUGMATRIX: Opiate kappa (OP2, KOP) radioligand binding (ligand: [3H] Diprenorphine). The following applies: Not Active = under 50% inhibition at 10 µM. In kind it is cell membranes, HEK293, Membrane.
In test [6] the target is Platelet-activating factor receptor (Homo sapiens, UniProt P25105). Kind of test: biochemical. The class given is tissue-based. Also: in other assays of this panel Not Active means under 50% inhibition at 10 µM.
Sequence of Platelet-activating factor receptor (P25105 whole entry): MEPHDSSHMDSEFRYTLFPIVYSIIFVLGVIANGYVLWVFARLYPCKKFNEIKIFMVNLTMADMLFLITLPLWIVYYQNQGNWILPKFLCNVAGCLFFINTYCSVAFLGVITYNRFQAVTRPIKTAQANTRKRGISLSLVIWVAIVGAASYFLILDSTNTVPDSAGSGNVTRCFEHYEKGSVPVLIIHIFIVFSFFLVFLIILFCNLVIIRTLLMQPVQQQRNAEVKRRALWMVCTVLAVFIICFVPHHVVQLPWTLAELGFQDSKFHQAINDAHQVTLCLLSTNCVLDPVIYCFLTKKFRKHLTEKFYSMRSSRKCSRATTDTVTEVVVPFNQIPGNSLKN
The target of test [7] is Mitogen-activated protein kinase 1 (Homo sapiens, UniProt P28482). The experiment in a line: DRUGMATRIX: Protein Serine/Threonine Kinase, ERK2 enzyme inhibition (substrate: Myelin Basic Protein). Details: species or system Escherichia coli. Particulars: Not Active = under 50% inhibition at 10 µM.
Sequence of Mitogen-activated protein kinase 1 (P28482 whole entry): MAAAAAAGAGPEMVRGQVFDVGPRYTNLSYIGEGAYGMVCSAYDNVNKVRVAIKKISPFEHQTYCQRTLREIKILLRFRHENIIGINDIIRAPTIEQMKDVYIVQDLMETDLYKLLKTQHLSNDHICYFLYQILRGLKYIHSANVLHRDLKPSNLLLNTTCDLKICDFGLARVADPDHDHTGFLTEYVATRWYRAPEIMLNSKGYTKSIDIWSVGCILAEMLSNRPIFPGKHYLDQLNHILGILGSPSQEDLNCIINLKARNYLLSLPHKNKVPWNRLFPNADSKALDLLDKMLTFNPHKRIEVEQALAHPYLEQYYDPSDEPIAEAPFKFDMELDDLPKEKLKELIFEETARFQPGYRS

Molecules are shown by their SMILES.

Sequence of Kappa-type opioid receptor (P41145 whole entry): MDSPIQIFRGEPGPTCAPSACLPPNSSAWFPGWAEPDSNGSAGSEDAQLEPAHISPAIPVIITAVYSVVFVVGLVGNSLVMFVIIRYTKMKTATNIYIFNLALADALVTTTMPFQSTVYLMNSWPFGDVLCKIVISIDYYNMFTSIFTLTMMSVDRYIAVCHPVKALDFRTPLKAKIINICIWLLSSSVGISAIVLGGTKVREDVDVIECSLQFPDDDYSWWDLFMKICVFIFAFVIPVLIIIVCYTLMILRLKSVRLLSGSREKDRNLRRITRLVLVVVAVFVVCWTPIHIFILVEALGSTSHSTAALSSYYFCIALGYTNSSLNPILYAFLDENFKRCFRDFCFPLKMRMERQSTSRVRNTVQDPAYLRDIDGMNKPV

By IC50 is commonly meant the concentration that gives 50% inhibition. The Ki is a dissociation constant, usually derived from enzyme kinetics or from competition with a known ligand. `COc1cc(CNC(=O)CCCC/C=C/C(C)C)ccc1O` [CAPSAICIN]: the IC50 result in test [1], in test [2], in test [3], in test [4], in test [5] (hek293) and in test [6] (platelet) was “Not Active” throughout. Also, the IC50 result in test [7] is “Not Active”. Moreover, the inhibitory constant (Ki) result in test [1] was “Not Active”.
As for `NC(=O)N1c2ccccc2C=Cc2ccccc21` [CARBAMAZEPINE], the IC50 entry in test [1], in test [2], in test [3], in test [4], in test [5] (hek293) and in test [6] (platelet) was “Not Active” throughout. The IC50 result in test [7] is on record as “Not Active”. In addition, in test [1], the inhibition constant (Ki) result is given as “Not Active”.
Regarding `CCOC(=O)n1ccn(C)c1=S` [CARBIMAZOLE], the IC50 entry in test [1], in test [2], in test [3], in test [4], in test [5] (hek293) and in test [6] (platelet) was “Not Active” throughout. Moreover, in test [7], the IC50 result is recorded as “Not Active”. Besides, the Ki result in test [1] was “Not Active”.
Consider `Oc1ccccc1O` [CATECHOL], for which the IC50 entry in test [1], in test [2], in test [3], in test [4], in test [5] (hek293) and in test [6] (platelet) was “Not Active” throughout. Besides, the IC50 result in test [7] is “Not Active”. The Ki entry in test [1] was “Not Active”.
Take `CO[C@@]1(NC(=O)CSCC#N)C(=O)N2C(C(=O)O)=C(CSc3nnnn3C)CS[C@@H]21` [CEFMETAZOLE]: the half-inhibitory concentration (IC50) entry in test [1], in test [2], in test [3], in test [4], in test [5] (hek293) and in test [6] (platelet) was “Not Active” in each case. For the same compound, in test [7], the IC50 entry is “Not Active”. The Ki entry in test [1] is “Not Active”.
For the compound `CN(C(=O)CCCOc1ccc2[nH]c(=O)ccc2c1)C1CCCCC1` [CILOSTAMIDE], the IC50 entry in test [1] is “Not Active”; in test [2], “Not Active”; in test [3], “Not Active”; in test [4] it was “Not Active”; in test [5] (hek293) it was “Not Active”; in test [6] (read-out: IC50), 3.69 µM. In addition, in test [7], the IC50 result is listed as “Not Active”. Moreover, the Ki result was “Not Active” in test [1] and 1.92 µM in test [6] (read-out: Ki).
As to `CC(C)(Oc1ccc(C2CC2(Cl)Cl)cc1)C(=O)O` (stereo not given) [CIPROFIBRATE], the IC50 result in test [1], in test [2], in test [3], in test [4], in test [5] (hek293) and in test [6] (platelet) was “Not Active” each time. Also, the IC50 entry in test [7] is on record as “Not Active”. Besides, in test [1], the Ki result is “Not Active”.
Take `Nc1nc(Cl)nc2c1ncn2[C@H]1C[C@H](O)[C@@H](CO)O1` [CLADRIBINE]: the IC50 entry in test [1], in test [2], in test [3], in test [4], in test [5] (hek293) and in test [6] (platelet) was “Not Active” throughout. For the same compound, in test [7], the IC50 result is “Not Active”. In addition, the Ki result in test [1] is reported as “Not Active”.
Take `CC[C@H]1OC(=O)[C@H](C)[C@@H](O[C@H]2C[C@@](C)(OC)[C@@H](O)[C@H](C)O2)[C@H](C)[C@@H](O[C@@H]2O[C@H](C)C[C@H](N(C)C)[C@H]2O)[C@](C)(OC)C[C@@H](C)C(=O)[C@H](C)[C@@H](O)[C@]1(C)O` [CLARITHROMYCIN]: the IC50 entry in test [1], in test [2], in test [3], in test [4], in test [5] (hek293) and in test [6] (platelet) was “Not Active” throughout. Also, the IC50 result in test [7] is on record as “Not Active”. Further, the Ki entry in test [1] is given as “Not Active”.
Turning to `CCC[C@@H]1C[C@@H](C(=O)N[C@@H]([C@H]2O[C@H](SC)[C@H](O)[C@@H](O)[C@H]2O)[C@H](C)Cl)N(C)C1` [CLINDAMYCIN], the IC50 entry in test [1], in test [2], in test [3], in test [4], in test [5] (hek293) and in test [6] (platelet) was “Not Active” throughout. Besides, the IC50 entry in test [7] is listed as “Not Active”. Besides, the Ki entry in test [1] is “Not Active”.
Take `O=C(O)c1cc(=O)c2c(OCC(O)COc3cccc4oc(C(=O)O)cc(=O)c34)cccc2o1` [CROMOLYN]: the IC50 result in test [1], in test [2], in test [3], in test [4], in test [5] (hek293) and in test [6] (platelet) was “Not Active” in each case. Moreover, the IC50 result in test [7] was “Not Active”. In addition, in test [1], the Ki entry is listed as “Not Active”.
As for `O=P1(N(CCCl)CCCl)NCCCO1` (stereo not given) [CYCLOPHOSPHAMIDE ANHYDROUS], the IC50 entry in test [1], in test [2], in test [3], in test [4], in test [5] (hek293) and in test [6] (platelet) was “Not Active” in each case. In test [7], the IC50 entry is given as “Not Active”. In addition, the Ki result in test [1] is recorded as “Not Active”.
Consider `CC(=O)O[C@]1(C(C)=O)CC[C@H]2[C@@H]3C=C(Cl)C4=CC(=O)[C@@H]5C[C@@H]5[C@]4(C)[C@H]3CC[C@@]21C` [CYPROTERONE ACETATE], for which the IC50 entry in test [1], in test [2], in test [3], in test [4], in test [5] (hek293) and in test [6] (platelet) was “Not Active” each time. Further, the IC50 result in test [7] is “Not Active”. The Ki entry in test [1] is “Not Active”.
Regarding `C#C[C@]1(O)CC[C@H]2[C@@H]3CCC4=Cc5oncc5C[C@]4(C)[C@H]3CC[C@@]21C` [DANAZOL], the IC50 result in test [1] is “Not Active”; in test [2], “Not Active”; in test [3], “Not Active”; in test [4] it was “Not Active”; in test [5] (read-out: IC50), 15.5 µM; in test [6] (platelet), “Not Active”. The IC50 entry in test [7] was “Not Active”. Moreover, the values for the Ki result in test [1] and in test [5] were “Not Active” and 6.21 µM, respectively.
Regarding `CCN[C@@H](C)Cc1cccc(C(F)(F)F)c1` [DEXFENFLURAMINE], the IC50 result in test [1], in test [2], in test [3], in test [4], in test [5] (hek293) and in test [6] (platelet) was “Not Active” each time. The IC50 entry in test [7] is “Not Active”. Also, in test [1], the Ki result was “Not Active”.
In the case of `C[C@H](C(=O)O)c1cccc(C(=O)c2ccccc2)c1` [DEXKETOPROFEN], the IC50 result in test [1], in test [2], in test [3], in test [4], in test [5] (hek293) and in test [6] (platelet) was “Not Active” each time. Besides, the IC50 entry in test [7] was “Not Active”. Further, the Ki result in test [1] was “Not Active”.
`CN1C(=O)CN=C(c2ccccc2)c2cc(Cl)ccc21` [DIAZEPAM]: the IC50 result in test [1], in test [2], in test [3], in test [4], in test [5] (hek293) and in test [6] (platelet) was “Not Active” each time. Moreover, the IC50 entry in test [7] is recorded as “Not Active”. Moreover, the inhibitory constant (Ki) entry in test [1] is recorded as “Not Active”.
On to `CC(CCc1ccc(O)cc1)NCCc1ccc(O)c(O)c1` (stereo not given) [DOBUTAMINE], for which the IC50 entry in test [1], in test [2], in test [3], in test [4], in test [5] (hek293) and in test [6] (platelet) was “Not Active” throughout. In test [7], the IC50 result is given as “Not Active”. Further, the Ki result in test [1] is “Not Active”.
As to `CCn1cc(C(=O)O)c(=O)c2cc(F)c(N3CCNCC3)nc21` [ENOXACIN], the half-maximal inhibitory concentration (IC50) result in test [1], in test [2], in test [3], in test [4], in test [5] (hek293) and in test [6] (platelet) was “Not Active” throughout. Moreover, in test [7], the IC50 entry was “Not Active”. Also, the Ki result in test [1] is given as “Not Active”.
In the case of `CCC(=O)O[C@H]1[C@H](O[C@@H]2[C@@H](C)[C@H](O[C@H]3C[C@@](C)(OC)[C@@H](O)[C@H](C)O3)[C@@H](C)C(=O)O[C@H](CC)[C@@](C)(O)[C@H](O)[C@@H](C)C(=O)[C@H](C)C[C@@]2(C)O)O[C@H](C)C[C@@H]1N(C)C` [ERYTHROMYCIN PROPIONATE], the IC50 result in test [1], in test [2], in test [3], in test [4], in test [5] (hek293) and in test [6] (platelet) was “Not Active” throughout. In addition, the IC50 result in test [7] is “Not Active”. Also, the Ki result in test [1] is recorded as “Not Active”.
On to `C=C(CC)C(=O)c1ccc(OCC(=O)O)c(Cl)c1Cl` [ETHACRYNIC ACID], for which the IC50 result in test [1], in test [2], in test [3], in test [4], in test [5] (hek293) and in test [6] (platelet) was “Not Active” each time. Besides, in test [7], the IC50 result is listed as “Not Active”. In test [1], the Ki entry was “Not Active”.
